{
  "source": "patent US4259342A",
  "about": "“Antianginal treatment with azepine derivatives” (priority 1978, dated 1981)",
  "key": {"[1]": {"system": "vagotomized rats", "experiment": "heart rate lowering effect on vagotomized rats", "format": "in vivo", "conditions": "Rattus norvegicus, iv, 0.5 h, read-out: D50 (dose which lowers the heart rate by 50 beats/min.)", "method": "were tested as follows with regard to their heart rate lowering effect on vagotomized rats:\nThe animals were vagotomized and received a tracheal cannula; a polyethylene catheter was placed into the jugular vein. For measuring the ECG, needle electrodes were clamped to the extremities. During the test the body temperature of the animals was kept constant (34° C.).\nAfter balancing out a constant starting heart rate (determined by counting the heart beats from the ECG), the test compound was intravenously administered to the animal. 30 minutes later the type was measured again.\nEach compound was tested at 3 dosages administered to each of 6 animals; only one compound and dose per animal.\nThe average of the 6 single values per dose (Δ heart rate in beats/min.) was determined, and the dose activity curves were prepared, from which the D50 (dose which lowers the heart rate by 50 beats/min.) was determined:"}, "[2]": {"experiment": "acute toxicity in mice after administration per os (Litchfield and Wilcoxon)", "conditions": "mouse, in vivo, po, mice of both sexes, deaths within 14 days", "procedure": "The acute toxicity was determined in mice of both sexes with an average body weight of 20 gm after administration per os. From the percentage of the animals which died within 14 days after the administration of various doses, the LD50 was determined according to the method of Litchfield and Wilcoxon (J. Pharmacol. exp. Ther. 96, 99 (1949): […]"}, "[3]": {"system": "patients with angina pectoris", "experiment": "exercise test on bicycle ergometer in patients with angina pectoris, crossover single-blind against placebo (antianginal activity)", "format": "in vivo", "procedure": "The antianginal activity of\nwas determined in patients with angina pectoris as follows:\n11 Patients with clinical and electrocardiographic symptoms of coronary insufficiency were selected for a crossover comparative single-blind study of compound A against placebo. Only those patients were allocated to one of the 2 treatments who complained of precordial pain at the same workload on 3 different days during the run-in period. In order to avoid carry-over effects the sequence of treatment was A placebo in every patient. 30 minutes after the injection of the test substance the patients were exercised on a bicycle ergometer. They started with a workload of 25 watts, which was increased every 3 minutes by 25 watts until the onset of pain. The heart rate and the blood pressure were registered every minute. The heart rate was determined by means of an ECG; the measurement of the blood pressure was carried out according to Riva-Rocci always by the same medical assistant.\nThe following parameters were evaluated:\n1. Time until the onset of pain\n2. Heart rate at the onset of pain\n3. Blood pressure at the onset of pain\n4. The workload performed, resulting from the sum of the products multiplied by the watts per minute (W×min).\n5. The maximum workload, which results from the watts of the last complete exercise period (lasting 3 minutes) and the watts of the next unfinished period (watts)\n6. The pressure frequency product as index for the oxygen consumption, which was calculated from the product of the heart rate and of the systolic blood pressure.\nSince some patients reported pain without depression of the ST segment, ST segment was not evaluated"}, "[4]": {"conditions": "i.v., vagotomized rats, 30 minutes after administration, 3 dosages, 6 animals each"}, "[5]": {"conditions": "at the moment of the highest comparable workload, 30 minutes after injection"}, "[6]": {"conditions": "at the onset of pain, 30 minutes after injection"}},
  "note": "Where a name gives a salt, the structure may show the parent alone. Read-outs that look alike come from different tables or passages of the source.",
  "data": [
    {"smiles": "C=CCN1CCc2nc(N)oc2CC1", "note": "[B, 2-Amino-6-allyl-4,5,7,8-tetrahydro-6H-oxoazolo[5,4-d]azepine dihydrochloride]", "values": [
      {"measurement": "ED (50 beats/min)", "setting": "[1]; [4]", "result": 0.1, "unit": "mg/kg"}
    ]},
    {"smiles": "CCN1CCc2nc(N)sc2CC1.Cl.Cl", "note": "[C, 2-Amino-6-ethyl-4,5,7,8-tetrahydro-6H-thiazolo[5,4-d]azepine dihydrochloride]", "values": [
      {"measurement": "LD50 at 336 h", "setting": "[2]", "result": "> 1500", "unit": "mg/kg"},
      {"measurement": "ED (50 beats/min)", "setting": "[1]; [4]", "result": 0.032, "unit": "mg/kg"}
    ]},
    {"smiles": "CCN1CCc2nc(N)oc2CC1.Cl.Cl", "note": "[Compound A, 2-Amino-6-ethyl-4,5,7,8-tetrahydro-6H-oxazolo[5,4-d]azepine dihydrochloride]", "values": [
      {"measurement": "LD50 at 336 h", "setting": "[2]", "result": 2210, "unit": "mg/kg"},
      {"measurement": "ED (50 beats/min)", "setting": "[1]", "result": 0.5, "unit": "mg/kg"},
      {"measurement": "increase of duration of exercise performance (time patients could be exercised longer) vs control", "setting": "[3]; 30 minutes after injection, control 6 minutes on the average", "result": 2, "unit": "min"},
      {"measurement": "reduction of heart rate at the highest comparable workload", "setting": "[3]; at the highest comparable workload, 30 minutes after injection", "result": 12, "unit": "beats/min"},
      {"measurement": "diastolic blood pressure at the highest comparable workload", "setting": "[3]; [5]", "result": "unchanged"},
      {"measurement": "reduction of systolic blood pressure at the highest comparable workload", "setting": "[3]; [5]", "result": 19, "unit": "mm Hg"},
      {"measurement": "diastolic blood pressure at the onset of pain", "setting": "[3]; [6]", "result": "unchanged"},
      {"measurement": "increase of heart rate at the onset of pain", "setting": "[3]; [6]", "result": 2, "unit": "beats/min"},
      {"measurement": "reduction of systolic blood pressure at the onset of pain", "setting": "[3]; [6]", "result": 8, "unit": "mm Hg"},
      {"measurement": "difference of heart rate between placebo and compound A during the last complete minute before stopping", "setting": "[3]; last complete minute before stopping, direction not given", "result": 3, "unit": "beats/min"},
      {"measurement": "reduction of systolic blood pressure over placebo during the last minute before stopping", "setting": "[3]; last minute before stopping", "result": 9, "unit": "mm Hg"},
      {"measurement": "product of pressure frequency during the last minute before stopping", "setting": "[3]; last minute before stopping, placebo 313", "result": 295},
      {"measurement": "product of pressure frequency at the highest comparable strain", "setting": "[3]; moment of the highest comparable strain, placebo 310", "result": 258},
      {"measurement": "maximum work (maximum workload)", "setting": "[3]; placebo 76 watts", "result": 87, "unit": "watts"},
      {"measurement": "average work performed until workload was stopped", "setting": "[3]; placebo 495 W×min", "result": 627, "unit": "W×min"},
      {"measurement": "O2 consumption of the heart (concluded from rate/pressure product)", "setting": "[3]; summary in words", "result": "diminishes O2 consumption"},
      {"measurement": "effect on duration of exercise and exercise capacity", "setting": "[3]; summary in words", "result": "increases the duration of exercise and exercise capacity"}
    ]},
    {"smiles": "CCCN1CCc2nc(N)sc2CC1.Cl.Cl", "note": "[Compound D, 2-Amino-6-n-propyl-4,5,7,8-tetrahydro-6H-thiazolo[5,4-d]azepine dihydrochloride]", "values": [
      {"measurement": "ED (50 beats/min)", "setting": "[1]; [4]", "result": 0.012, "unit": "mg/kg"}
    ]},
    {"smiles": "C=CCN1CCc2nc(N)sc2CC1.Cl.Cl", "note": "[E, 2-Amino-6-allyl-4,5,7,8-tetrahydro-6H-thiazolo[5,4-d]azepine dihydrochloride]", "values": [
      {"measurement": "LD50 at 336 h", "setting": "[2]", "result": 455, "unit": "mg/kg"},
      {"measurement": "ED (50 beats/min)", "setting": "[1]; [4]", "result": 0.042, "unit": "mg/kg"}
    ]},
    {"smiles": "Cl.Cl.Nc1nc2c(s1)CCN(CCO)CC2", "note": "[F, 2-Amino-6-(2-hydroxy-ethyl)-4,5,7,8-tetrahydro-6H-thiazolo[5,4-d]azepine dihydrochloride]", "values": [
      {"measurement": "LD50 at 336 h", "setting": "[2]", "result": "~1000", "unit": "mg/kg"},
      {"measurement": "ED (50 beats/min)", "setting": "[1]; [4]", "result": 0.037, "unit": "mg/kg"}
    ]},
    {"smiles": "Nc1nc2c(s1)CCN(Cc1ccc(Cl)cc1)CC2", "note": "[G, 2-Amino-6-(4-chloro-benzyl)-4,5,7,8-tetrahydro-6H-thiazolo[5,4-d]azepine dihydrocloride]", "values": [
      {"measurement": "LD50 at 336 h", "setting": "[2]", "result": 905, "unit": "mg/kg"},
      {"measurement": "ED (50 beats/min)", "setting": "[1]; [4]", "result": 1.4, "unit": "mg/kg"}
    ]}
  ]
}
